Measurements published in US12522635B2, “Amyloid peptide variants” (Loyola Marymount University, priority 2019, dated 2026).

How the values were obtained:
[1] = system: RIN-m cells; test: MTT viability assay, peptide alone or mixed with hIAPP; assay type: cell-based; conditions: for rescue / protection of cells from hIAPP toxicity (words): hIAPP mixed with peptide 1:1, MTT assay; for toxicity of peptide to cells: peptide alone, MTT assay, pancreatic (RIN-m) cells
Description: Cytoprotection can likewise be measured by a number of assays known to the art. One such assay is the MTT assay, which is a colorimetric assay for assessing cell metabolic activity. NAD(P)H-dependent cellular oxidoreductase enzymes in the cytosolic compartment of a cell reduces the tetrazolium dye MTT 3-(4,5-dimethylthiazol-2-yl)-2,5-diphenyltetrazolium bromide to an insoluble form, formazan, which has a purple color. The reduction of MTT (and other tetrazolium dyes) depends on the cellular metabolic activity, so a loss of color in the course of performing an MTT assay indicates low metabolic activity, and is thus an indicator of cell damage and death.
To test cell viability, a MTT colorimetric assay measuring the conversion of yellow tetrazolium salt into purple formazan crystal catalyzed by a mitochondrial reductase was used. Cell viability studies were performed using RIN-m cells (ATCC, CRL-2057). An equal number of RIN-m cells were plated in triplicate and incubated overnight in 96-well plates. The next day, fresh RPMI-1640 with phenol red supplemented with 10% FBS was added to cells. Hexafluoroisopropanol (HFIP) was removed from each individual human and animal IAPP using a centrivap concentrator (LabOnco). All IAPP peptide samples were re-suspended in RPMI-1640 with 10% FBS. To ensure even re-suspension, each resulting IAPP-containing vial was scraped with a pipette tip six times and vortexed (Vortex Genie Mixer) for 15 seconds. The whole process, from drying each IAPP peptide to adding each IAPP peptide to the cells was uniform to ensure that each sample was incubated for an equal amount of time with each IAPP peptide. IAPP peptides were added to cells and incubated for 46 hours at 37° C. Post-incubation, the media in each well was replaced by fresh DMEM/F-12 without phenol red. MTT (3-(4,5-dimethyl-2-thiazolyl)-2,5-diphenyl-tetrazolium bromide) was added into each well and incubated at 37° C. for 2 hours. Formazan crystals, formed on the bottom of the wells, were re-suspended in solubilization buffer (20% SDS and 50% dimethylformamide). The absorbance in each well was taken at 570 nm using a Multiskan FC Microplate Photometer (Thermos Fisher Scientific). Media were obtained from ATCC. All incubations took place in a water jacketed incubator in 5% carbon dioxide at 37° C. (Shell Lab).
The MTT viability assay was used to measure cell viability of RIN-m cells upon addition of hIAPP alone, the addition of each animal IAPP peptide alone, and hIAPP mixed with each animal IAPP peptide (results shown in FIG. 5). RIN-m cells alone were used as a control and set to 100% cell viability. […] Addition of raccoon IAPP to hIAPP increased the cell viability from 55% to an average of 72% (p=0.005705). Addition of chicken IAPP variant to hIAPP increased cell viability to an average of 76% (p=0.013556).

[2] = AFM of peptide alone (self-aggregation / fibril formation); assay type: physicochemical; conditions: for aggregation / fibril formation of peptide alone, AFM: incubated 40 minutes at 37° C. with shaking
Experimental: (§1) Samples labeled with hIAPP contained 40 μM hIAPP. The sample with pramlintide and hIAPP contained a 2:1 molar mixture (80 μM Pramlintide mixed with 40 μM hIAPP). The samples with raccoon IAPP and Pramlintide alone contained 40 μM of the indicated peptides. Each sample was incubated for 40 minutes at 37° C. with shaking; conditions known to promote hIAPP amyloid formation. All scans show raw data with no flattening and are […].
(§2) Samples of hIAPP with or without animal IAPP were prepared as described in Example 1 and were then incubated with shaking at 37° C. for 40 minutes. After this incubation, 17 μL of each sample was deposited onto freshly cleaved mica. Samples were incubated for 5 minutes at room temperature before washing with 200 μL sterile water. After drying, the samples were scanned using an MFP-3D atomic force microscope (Asylum Research) set on A/C mode and a 240 m silicon cantilever (Olympus).
(§3) Many of the animal IAPP variants are known to likewise form fibrils and yield amyloid-plaques when scanned via AFM. […] This is in spite of the fact that all of these IAPP peptides (except polar bear IAPP) are known to aggregate and form fibrils themselves under these or similar conditions

[3] = biological target: T1, human IAPP (hIAPP) (Homo sapiens, UniProt P10997); test: Thioflavin T binding assay of hIAPP aggregation when mixed with IAPP peptides; assay type: biochemical; conditions: for inhibition of hIAPP aggregation, thioflavin T binding: hIAPP mixed with peptide, incubated at 37° C. with shaking
T1 construct: This 37 amino acid polypeptide is co-secreted from pancreatic β-islet cells with insulin
T1 sequence (P10997 34-70 limits assumed): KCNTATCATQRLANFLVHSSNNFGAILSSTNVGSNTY
Description: Any of a number of assays known to the art can be used to evaluate the ability of IAPP peptides to inhibit hIAPP aggregation and/or protect cells from hIAPP toxicity. Thioflavin T (ThT) binding is one such technique for identifying amyloid formation in real time. Human IAPP is known to bind thioflavin T during aggregation and amyloid formation, and upon binding to amyloid fibrils ThT will give a strong fluorescence signal at approximately 482 nm when excited at 450 nm. ThT fluorescence correlates linearly with amyloid concentration in a sample and therefore can be used to determine the amount of aggregation in a sample. This technique can therefore be used for identifying substances with amyloid-inhibiting potential when such substances are mixed with human IAPP under conditions known to result in the formation of aggregates by hIAPP. Determining the extent of aggregation can also be determined using other techniques, such as Atomic Force Microscopy (AFM), which can provide information about particle dimensions, shape, and substructure with nanometer resolution. In the foregoing assays and others that can be used by one of skill in the art, significant inhibition can be determined using a t-test by measuring the difference between hIAPP and hIAPP combined with an IAPP peptide.
To identify IAPP peptides having inhibitory potential against hIAPP aggregation, the peptides shown in FIG. 1 from a number of species (cow, degu, guinea pig, horse, pig, rat, and sheep[…]) were mixed with hIAPP at a 2:1 molar ratio of animal peptide to hIAPP and incubated under conditions known to promote hIAPP aggregation and fibril formation. IAPP alone, or hIAPP mixed with an animal IAPP, was pipetted into a glass tube and the HFIP was removed under speed-vacuum. The resulting peptide sample was dissolved in 20 mM Tris buffer pH 7.4.
37 μM human IAPP was mixed with 75 μM of each indicated animal IAPP. Aggregation was initiated by incubating samples at 37° C. with shaking at 200 rpm for 40 minutes. At indicated time points, a 17 μL aliquot of each sample was mixed with 663 μL of 50.0 μM thioflavin T in 20 mM Tris buffer (pH 7.4). Thioflavin T fluorescence emission was then recorded at 488 nm using a Hitachi F-7000 fluorescence spectrophotometer.
After 40 minutes, these samples were monitored for their ability to bind thioflavin T (see FIG. 2) and their ability to form fibrils as identified with atomic force microscopy.
Human IAPP (37 μM) was mixed with each of the indicated Weddell seal variants (at 75 μM) and incubated for 30 minutes at 37° C. with shaking at 200 rpm. The Weddell seal IAPP peptides were likewise subjected to atomic force microscopy as described in Example 2.
Human IAPP was mixed with each of the indicated raccoon variants and incubated at 37° C. with shaking.
Human IAPP was mixed with each of the indicated chicken variants and incubated at 37° C. with shaking. […] However, it was able to protect cells in MTT assays, so it is believed to inhibit formation of toxic oligomers while having a lesser effect on inhibiting the formation of fibers (which are less toxic and less able to bind ThT).
Human IAPP was mixed with each of the indicated chicken variants and incubated at 37° C. with shaking.

[4] = biological target: T1, human IAPP (hIAPP); test: Atomic force microscopy (AFM) of hIAPP fibril formation when mixed with IAPP peptides; assay type: biochemical; conditions: for inhibition of hIAPP fiber formation: FIG. 22: 37 μM hIAPP mixed with 37 μM peptide, 37° C. with shaking for 30 minutes; for inhibition of hIAPP fibril formation, AFM: 37 μM hIAPP and 75 μM peptide, 37° C. with shaking for 40 minutes
Experimental: as §1
Each sample contained 37 μM hIAPP and 75 μM of the indicated peptide. Samples were incubated at 37° C. with shaking for 40 minutes. All scans show raw data with no flattening and are […].
Each sample contained 37 μM hIAPP mixed with 37 μM of the indicated peptide. Samples were incubated at 37° C. with shaking for 30 minutes before depositing each sample onto freshly cleaved mica.
as §2, §3

With `CC[C@H](C)[C@H](NC(=O)[C@H](C)NC(=O)CNC(=O)[C@H](Cc1ccccc1)NC(=O)[C@H](CC(N)=O)NC(=O)[C@H](CC(N)=O)NC(=O)[C@H](CO)NC(=O)[C@H](CO)NC(=O)[C@H](Cc1c[nH]cn1)NC(=O)[C@@H](NC(=O)[C@H](CC(C)C)NC(=O)[C@H](Cc1ccccc1)NC(=O)[C@H](CC(N)=O)NC(=O)[C@H](C)NC(=O)[C@H](CC(C)C)NC(=O)[C@H](CCCNC(=N)N)NC(=O)[C@H](CCC(N)=O)NC(=O)[C@@H](NC(=O)[C@H](C)NC(=O)[C@@H]1CSSC[C@H](NC(=O)[C@@H](N)CCCCN)C(=O)N[C@@H](CC(N)=O)C(=O)N[C@@H]([C@@H](C)O)C(=O)N[C@@H](C)C(=O)N[C@@H]([C@@H](C)O)C(=O)N1)[C@@H](C)O)C(C)C)C(=O)N[C@@H](CC(C)C)C(=O)N[C@@H](CO)C(=O)N[C@@H](CO)C(=O)N[C@H](C(=O)N[C@@H](CC(N)=O)C(=O)N[C@H](C(=O)NCC(=O)N[C@@H](CO)C(=O)N[C@@H](CC(N)=O)C(=O)N[C@H](C(=O)N[C@@H](Cc1ccc(O)cc1)C(N)=O)[C@@H](C)O)C(C)C)[C@@H](C)O` [hIAPP, reference compound] as the molecule, how does the “cell viability, peptide alone” value ([1]; 12.8 μM, RIN-m cells, 46 hours, cells alone set to 100%) read?
The value was 55+/−5%.

What about the “aggregation / fibril formation of peptide alone, AFM” value [2] of the same molecule?
Its value is “forms high-density fibrils”.

With `CC[C@H](C)[C@H](NC(=O)[C@@H]1CCCN1C(=O)CNC(=O)[C@H](Cc1ccccc1)NC(=O)[C@H](CC(N)=O)NC(=O)[C@H](CC(N)=O)NC(=O)[C@H](CO)NC(=O)[C@H](CO)NC(=O)[C@H](Cc1c[nH]cn1)NC(=O)[C@@H](NC(=O)[C@H](CC(C)C)NC(=O)[C@H](Cc1ccccc1)NC(=O)[C@H](CC(N)=O)NC(=O)[C@H](C)NC(=O)[C@H](CC(C)C)NC(=O)[C@H](CCCNC(=N)N)NC(=O)[C@H](CCC(N)=O)NC(=O)[C@@H](NC(=O)[C@H](C)NC(=O)[C@@H]1CSSC[C@H](NC(=O)[C@@H](N)CCCCN)C(=O)N[C@@H](CC(N)=O)C(=O)N[C@@H]([C@@H](C)O)C(=O)N[C@@H](C)C(=O)N[C@@H]([C@@H](C)O)C(=O)N1)[C@@H](C)O)C(C)C)C(=O)N[C@@H](CC(C)C)C(=O)N1CCC[C@H]1C(=O)N1CCC[C@H]1C(=O)N[C@H](C(=O)N[C@@H](CC(N)=O)C(=O)N[C@H](C(=O)NCC(=O)N[C@@H](CO)C(=O)N[C@@H](CC(N)=O)C(=O)N[C@H](C(=O)N[C@@H](Cc1ccc(O)cc1)C(N)=O)[C@@H](C)O)C(C)C)[C@@H](C)O` [pramlintide, reference compound] as the molecule, how does the “rescue / protection of cells from hIAPP toxicity (words)” value (“rescue / protection of cells” below) [1] read?
The value was “no ability to protect cells from the toxic effects of hIAPP”.

And the “toxicity of peptide to cells” value [1]?
The value was “toxic to the cells”.

What about the “aggregation propensity relative to comparator” value ([2]; comparison of pramlintide with the IAPP peptides) of the same molecule?
The value was “more amyloidogenic than the present IAPP peptides”.

What about the “aggregation / fibril formation of peptide alone, AFM” value [2] of the same molecule?
The value was “formed amyloid fibers”.

With “KCNTATCVTQRLADFLVRSSSNLGAIYSPTNVGSNTY (Gallus gallus mutation) [Ch_I22L]” as the molecule, how does the “inhibition of hIAPP aggregation, thioflavin T binding” value (“inhibition … thioflavin T binding” below) [3] read?
The value was “inhibited hIAPP aggregation”.

What about the “inhibition of hIAPP fiber formation” value [4] of the same molecule?
The value was “able to inhibit hIAPP fiber formation”.

What about the “rescue / protection of cells” value [1] of the same molecule?
Its value is “rescued cells from hIAPP-induced cytotoxicity”.

And the “rescue / protection of cells” value ([1]; listed as Ch-122L)?
Its value is “rescue cells from hIAPP toxicity”.

What about the “toxicity of peptide to cells” value [1] of the same molecule?
The value was “minimal inherent toxicity”.

Which “inhibition … thioflavin T binding” value [3] does the source give for “KCNTATCVTQRLANFLLRSSNNLGAIL (Procyon lotor truncation) [R1-27]” here?
Its value is “inhibited hIAPP aggregation”.

What about the “inhibition of hIAPP fibril formation, AFM” value [4] of the same molecule?
Its value is “did”.

What about the “rescue / protection of cells” value [1] of the same molecule?
Its value is “rescued cells from hIAPP-induced cytotoxicity”.

With “KCNTATCVTQRLANFLLRSSNNLGAILSP (Procyon lotor truncation) [R1-29]” as the molecule, how does the “inhibition … thioflavin T binding” value [3] read?
Its value is “inhibited hIAPP aggregation”.

What about the “inhibition of hIAPP fibril formation, AFM” value [4] of the same molecule?
Its value is “did”.

What about the “rescue / protection of cells” value [1] of the same molecule?
The value was “rescued cells from hIAPP-induced cytotoxicity”.

For “KCNTATCVTQRLANFLLRSSNNLGAIYSPTNVGSNTY (Procyon lotor mutation) [Rac_L26Y]”, which “inhibition … thioflavin T binding” value [3] is on record?
Its value is “inhibited hIAPP aggregation”.

And the “inhibition of hIAPP fiber formation” value [4]?
The value was “stood out for its ability to inhibit hIAPP fiber formation”.

And the “rescue / protection of cells” value [1]?
Its value is “improved cell viability in the presence of hIAPP”.

What about the “rescue / protection of cells” value ([1]; listed as Rac-L26Y) of the same molecule?
The value was “rescue cells from hIAPP toxicity”.

And the “toxicity of peptide to cells” value [1]?
Its value is “minimal inherent toxicity”.

Which results are given for “rat IAPP: naturally occurring IAPP peptide of rat origin (FIG. 1)”?
inhibition of hIAPP aggregation (summary statement) ([3]; peptide mixed with hIAPP, no single assay (thioflavin T and AFM)): failed to inhibit the aggregation of human IAPP; inhibition of hIAPP fibril formation, AFM [4]: either had no effect on hIAPP fibril formation or appeared to promote fibrils with hIAPP; rescue / protection of cells from hIAPP toxicity (words) [1]: not capable of protecting RIN-m cells from the toxic effects of hIAPP; toxicity of peptide to cells [1]: improved effect on cell viability
